From paper PMC5663094, “A seven-gene cluster in Ruminiclostridium cellulolyticum is essential for signalization, uptake and catabolism of the degradation products of cellulose hydrolysis” (Biotechnology for Biofuels, 2017)

Key:
rCuaA = target: T1, rCuaA (Ruminiclostridium cellulolyticum, UniProt B8I424); test: isothermal titration calorimetry; format: binding; details: 20 °C, 150 mM NaCl, 25 mM HEPES, pH 7.0
T1 construct: gene Ccel_2112; mature protein (lipoprotein signal peptide removed, putative cleavage at amino acid 22), N-terminal His6, pET22b(+), E. coli BL21(DE3)
T1 sequence (B8I424 entry or part of it): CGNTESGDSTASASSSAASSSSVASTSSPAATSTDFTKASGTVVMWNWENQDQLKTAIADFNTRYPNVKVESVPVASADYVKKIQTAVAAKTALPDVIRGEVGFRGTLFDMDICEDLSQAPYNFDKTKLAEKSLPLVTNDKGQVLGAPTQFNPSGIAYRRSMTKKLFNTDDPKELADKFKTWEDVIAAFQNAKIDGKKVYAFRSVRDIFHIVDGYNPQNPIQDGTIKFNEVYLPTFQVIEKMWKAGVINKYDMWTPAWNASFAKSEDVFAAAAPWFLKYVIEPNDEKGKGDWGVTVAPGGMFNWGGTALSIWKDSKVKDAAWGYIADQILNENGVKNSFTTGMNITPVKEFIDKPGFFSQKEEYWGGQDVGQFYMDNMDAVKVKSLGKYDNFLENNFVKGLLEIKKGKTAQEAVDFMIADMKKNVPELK
Source text: isothermal titration calorimetry on rCuaA

rCuaD = target: T2, rCuaD (Ruminiclostridium cellulolyticum, UniProt B8I427); test: isothermal titration calorimetry; format: binding; details: 20 °C, 150 mM NaCl, 25 mM HEPES, pH 7.0
T2 construct: gene Ccel_2115; mature protein (lipoprotein signal peptide removed, putative cleavage at amino acid 20), N-terminal His6, pET22b(+), E. coli BL21(DE3)
T2 sequence (B8I427 entry or part of it): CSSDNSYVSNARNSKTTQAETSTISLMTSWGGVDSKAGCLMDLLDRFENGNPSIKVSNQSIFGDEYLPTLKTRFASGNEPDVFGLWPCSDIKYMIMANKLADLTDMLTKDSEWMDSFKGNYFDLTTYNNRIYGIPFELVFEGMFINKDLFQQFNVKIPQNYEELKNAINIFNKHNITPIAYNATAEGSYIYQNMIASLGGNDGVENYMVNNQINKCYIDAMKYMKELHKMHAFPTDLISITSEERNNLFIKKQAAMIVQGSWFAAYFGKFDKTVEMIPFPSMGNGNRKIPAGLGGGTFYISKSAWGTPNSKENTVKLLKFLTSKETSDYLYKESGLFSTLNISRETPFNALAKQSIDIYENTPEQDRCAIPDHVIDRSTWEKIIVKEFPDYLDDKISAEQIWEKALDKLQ
Source text: isothermal titration calorimetry on rCuaD

Row | Compound | Kd (rCuaA) [nM] | Kd (rCuaD) [nM]
1 | OC[C@H]1O[C@@H](O[C@H]2[C@H](O)[C@@H](O)[C@H](O[C@H]3[C@H](O)[C@@H](O)[C@H](O[C@H]4[C@H](O)[C@@H](O)[C@H](O[C@H]5[C@H](O)[C@@H](O)C(O)O[C@@H]5CO)O[C@@H]4CO)O[C@@H]3CO)O[C@@H]2CO)[C@H](O)[C@@H](O)[C@@H]1O (some centres unmarked) [G5, cellopentaose] | 1860 ± 130 | 
2 | OC[C@H]1O[C@@H](O[C@H]2[C@H](O)[C@@H](O)[C@H](O[C@H]3[C@H](O)[C@@H](O)C(O)O[C@@H]3CO)O[C@@H]2CO)[C@H](O)[C@@H](O)[C@@H]1O (some centres unmarked) [G3, cellotriose] | 405 ± 110 | 
3 | OC[C@H]1O[C@@H](O[C@H]2[C@H](O)[C@@H](O)[C@H](O[C@H]3[C@H](O)[C@@H](O)[C@H](O[C@H]4[C@H](O)[C@@H](O)C(O)O[C@@H]4CO)O[C@@H]3CO)O[C@@H]2CO)[C@H](O)[C@@H](O)[C@@H]1O (some centres unmarked) [G4, cellotetraose] | 644 ± 58 | 
4 | OC[C@H]1O[C@@H](O[C@H]2[C@H](O)[C@@H](O)C(O)O[C@@H]2CO)[C@H](O)[C@@H](O)[C@@H]1O (some centres unmarked) [G2, cellobiose] | 240 ± 20 | 23 ± 3
